Results reported in patent US12139475B2, “2-oxindole compounds” (CHEMOCENTRYX, INC., priority 2016, dated 2024).

Molecular target: T1, CCR(9) (Homo sapiens, UniProt P51686)
T1 construct: MOLT-4 cells were collected by centrifugation at 400×g at room temperature, then suspended at 50 million/ml in human serum; host or cells: MOLT-4
T1 sequence (P51686 1-369): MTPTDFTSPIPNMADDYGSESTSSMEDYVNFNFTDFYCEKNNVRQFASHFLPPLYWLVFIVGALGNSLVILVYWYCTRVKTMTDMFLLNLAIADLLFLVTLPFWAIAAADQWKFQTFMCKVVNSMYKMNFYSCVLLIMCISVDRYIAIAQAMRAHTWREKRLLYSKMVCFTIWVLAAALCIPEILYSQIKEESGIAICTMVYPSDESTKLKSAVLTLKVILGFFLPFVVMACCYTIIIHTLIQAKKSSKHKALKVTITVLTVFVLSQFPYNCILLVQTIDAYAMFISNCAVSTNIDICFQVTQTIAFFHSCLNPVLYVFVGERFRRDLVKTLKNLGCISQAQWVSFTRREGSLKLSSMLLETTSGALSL
Test: Serum chemotaxis assay (MOLT-4 cells, TECK-induced migration, ChemoTX)
Type: cell-based
Settings: MOLT-4 cells in human serum, migration to recombinant human TECK, 90 minutes at 37° C.
Procedure: MOLT-4 cells were obtained from the American Type Culture Collection (Manassas, VA) and cultured in RPMI tissue culture medium supplemented with 10% fetal calf serum (FCS) in a humidified 5% CO2 incubator at 37° C. Recombinant human chemokine proteins TECK was obtained from R&D Systems (Minneapolis, MN). ChemoTX™ chemotaxis microchambers were purchased from Neuro Probe (Gaithersburg, MD). CyQUANT™ cell proliferation kits were purchased from Molecular Probes (Eugene, Oregon). Calcium indicator dye Fluo-4 AM was purchased from Molecular Devices (Mountain View, CA).
A serum chemotaxis assay was used to determine the efficacy of potential receptor antagonists at blocking the migration mediated through chemokine receptors, such as CCR(9). This assay was performed using the ChemoTX® microchamber system with a 5-μm pore-sized polycarbonate membrane. MOLT-4 cells were collected by centrifugation at 400×g at room temperature, then suspended at 50 million/ml in human serum, containing 50 mM HEPES (final pH of 7.2). The compound being tested or an equivalent volume of its solvent (DMSO) was then added to the cell/serum mixture at a final DMSO concentration of 0.125% (v/v), and this mixture was then incubated together at 37° C. for one hour. Separately, recombinant human TECK was diluted with chemotaxis buffer (HBSS+0.1% BSA), generally spanning a range from 0.1 nM to 500 nM, after which 29 μl of diluted chemokine was placed in the lower wells of the ChemoTX® plate. The 5-μm (pore size) polycarbonate membrane was placed onto the plate, and 20 μL of the cell/compound mixture was transferred onto each well of the membrane. The plates were incubated at 37° C. for 90 minutes, after which the polycarbonate membranes were removed and 5 μl of the DNA-intercalating agent CyQUANT (Invitrogen, Carlsbad, CA) was added to the lower wells. The amount of fluorescence, corresponding to the number of migrated cells, was measured using a Spectrafluor Plus plate reader (TECAN, San Jose, CA).
The A2 values were calculated from the following equation, comparing the efficacy of the test compound with that of the DMSO-only control at equi-active chemokine levels: Log(A2)=log[drug(M)]−log[(A′/A)−1] where A reflects the potency of the agonist in the absence of antagonist and A′ reflects the potency of the agonist in the presence of antagonist at a given concentration of drug ([drug(M)]). In Vivo Efficacy Models for Human IBD

SMILES | Chemotaxis A2
Cn1nnn(Cc2ccc(N3C(=O)[C@@](C)(c4ccc5c(c4)CCC(C)(C)O5)c4cc(Cl)ccc43)cc2)c1=O [(S)-5-chloro-3-(2,2-dimethylchroman-6-yl)-3-methyl-1-(4-((4-methyl-5-oxo-4,5-dihydro-1H-tetrazol-1-yl)methyl)phenyl)indolin-2-one] | +++ (100 nM > A2)
CC1(C)CCc2cc([C@]3(C)C(=O)N(c4ccc(Cn5nn[nH]c5=O)cc4)c4ccc(Cl)cc43)ccc2O1 [(S)-5-chloro-3-(2,2-dimethylchroman-6-yl)-3-methyl-1-(4-((5-oxo-4,5-dihydro-1H-tetrazol-1-yl)methyl)phenyl)indolin-2-one] | +++ (100 nM > A2)
